Drawing on PubChem BioAssay (NCI), this text covers TGI and GI50 for nine molecules.

Test in all cases: NCI tumour cell line growth inhibition, 48 h
Experiment [1] deals with HCC-2998 colon.
The test system of experiment [2] is HL-60(TB) leukemia.
Experiment [3] has as its system M14 melanoma.
The subject of experiment [4] is COLO 205 colon.
Experiment [5] concerns U251 CNS.
The test system of experiment [6] is IGROV1 ovarian.
The test system of experiment [7] is HOP-62 NSCLC.
Experiment [8] concerns SK-OV-3 ovarian.
In experiment [9] the test system is SN12C renal.
Experiment [10] relates to UACC-62 melanoma.

The structures appear in SMILES notation. Several values for one entry are separate records, joined by “and”; a condition that tells them apart may be missing. Equal entries are not always repeated.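 Compound exposure: 48 hours, 5 concentrations, 96-well plates. GI50 = concentration required for 50% inhibition of growth. Definition used: TGI = concentration required for complete inhibition of growth.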

As to `Cc1c(-c2nnc(-c3ccc(Cl)cc3)o2)c(=O)n(-c2ccccc2)n1C`, the TGI in experiment [1], in experiment [2], in [3], in experiment [4], in [5] and in experiment [6] was above 100 µM in each case. Moreover, the TGI in experiment [7], in [8], in experiment [9] and in experiment [10] was above 100 µM in each case.
Regarding `O=C(Nc1ccc(Oc2ccc3nc(NC(=O)c4ccccc4)[nH]c3c2)cc1)Nc1cc(C(F)(F)F)ccc1F`, the GI50 in experiment [1] is 2.38 µM; in experiment [2], 0.738 µM; in experiment [3], 0.997 µM; in [4] it was 1.12 µM; in experiment [5], 1.28 µM; in experiment [6], 1.47 µM. Further, the GI50 was 0.871 µM in experiment [7], 4.38 µM in experiment [8], 1.75 µM in experiment [9] and 0.818 µM in experiment [10]. Further, the TGI in experiment [1] was above 21.5 µM; in experiment [2] it was 3.29 µM; in experiment [3] it was 9.29 µM; in [4], 6.7 µM; in experiment [5] it was 21.6 µM; in [6], above 21.1 µM. For the same molecule, the TGI in [7] was 6.65 µM; in [8], 16.5 µM; in [9] it was above 25 µM; in experiment [10], 4.01 µM.
In the case of `COc1ccc2c3c(n(Cc4ccccc4)c(=O)c2c1)-c1cc(OC)c(OC)cc1C3C` (stereo not drawn), the TGI in experiment [1] is above 100 µM; in [2], above 100 µM; in experiment [3], above 100 µM; in experiment [4], above 100 µM; in experiment [5], 35.8 µM; in [6], above 100 µM. In addition, the TGI in experiment [7] is above 70 µM; in [8], above 80.4 µM; in experiment [9] it was above 100 µM; in experiment [10], 69.9 µM.
With `O=P(NC12CC3CC(CC(C3)C1)C2)(N1CC1)N1CC1`, the TGI is above 100 µM in experiment [1]; 98.9 µM in [2]; above 100 µM in experiment [3]; above 100 µM in experiment [4]; above 100 µM in [5]; above 100 µM in [6]. Also, the TGI in experiment [7] was above 100 µM; in experiment [8], above 100 µM; in [9] it was above 100 µM; in [10], above 72.2 µM.
Consider `CN(C)c1ncnc2c1nnn2C1OC(CO)C(O)C1O` (stereo not drawn), for which the GI50 in experiment [1] was 0.325 µM; in experiment [2] it was 0.239 µM; in experiment [3] it was 0.0515 µM; in [4], 0.194 µM; in [5], 1.6 µM; in [6], 0.361 µM. The GI50 in experiment [7] was 0.405 µM; in [8], 0.0413 µM; in experiment [9], 0.479 µM; in experiment [10], 0.246 µM. Moreover, the TGI in experiment [2] is above 100 µM; in [3], 1.14 µM; in experiment [4], 0.769 µM; in [5], above 100 µM; in experiment [6], 15.9 µM; in experiment [7] it was above 100 µM. The values for the TGI in experiment [8], in experiment [9] and in [10] were 22.5 µM, above 100 µM and 1.55 µM, respectively.
On to `Cc1cc(C2=NNC(=O)Cc3cc4c(cc32)OCCO4)cc(C)c1N`, for which the GI50 in experiment [1] was 3.26 µM; in experiment [2], 1.59 µM; in experiment [3], 2.17 µM; in [4], 1.55 µM; in [5], 3.22 µM; in experiment [6], 3 µM. Further, the GI50 is 2.72 µM in experiment [7], 2.44 µM in experiment [8], 6.17 µM in experiment [9] and 3.59 µM in experiment [10]. The TGI in experiment [1] was 44 µM; in experiment [2], 54.5 µM; in experiment [3] it was above 100 µM; in experiment [4], 11.2 µM; in [5], above 100 µM; in [6], above 100 µM. The TGI was above 100 µM in experiment [7], 23.6 µM in experiment [8], above 100 µM in experiment [9] and above 100 µM in [10].
Regarding `CN(N=O)C(=O)N[C@@H](C=O)[C@@H](O)[C@H](O)[C@H](O)CO`, the GI50 in experiment [1], in [2], in experiment [4], in experiment [5], in experiment [6] and in experiment [7] was above 750 µM in each case. Also, the GI50 in experiment [8], in [9] and in experiment [10] was above 750 µM in each case. Moreover, the TGI in experiment [1] is 600 µM and > 750 µM; in experiment [2] it was above 750 µM; in experiment [3], above 750 µM; in experiment [4], 640 µM and > 750 µM; in experiment [5] it was 626 µM and > 750 µM; in experiment [6], above 750 µM. For the same molecule, the TGI in experiment [7] was above 750 µM; in experiment [8], 622 µM and > 750 µM; in experiment [9], 603 µM and > 750 µM; in experiment [10], above 750 µM.
On to `O=C1N(c2ccccc2)C(=O)C2(SC=NN2Cc2ccccc2)N1c1ccccc1` (stereo not drawn), for which the TGI in experiment [1], in experiment [2], in experiment [3], in experiment [4], in experiment [5] and in experiment [6] was above 100 µM throughout. In addition, the TGI in experiment [7], in [8], in experiment [9] and in [10] was above 100 µM throughout.
With `CC1(C)OC(C[C@]2(C#N)C[C@H](CCl)OC(C)(C)O2)C[C@@H](C[C@]2(C#N)C[C@H](CCl)OC(C)(C)O2)O1` (stereo partly drawn), the TGI in experiment [1], in experiment [2], in [3], in experiment [4], in experiment [5] and in [6] was above 100 µM throughout. Also, the TGI in experiment [7], in experiment [8], in [9] and in experiment [10] was above 100 µM throughout.
